The SangsterLogP compilation

Columns and labels:
[1] = method code SF-AS, from PMID: 1042; details: pH 7.4
[2] = method code SF-AS, from DOI: 10.1016/0891-5849(92)90146-8, PMID: 1334029; details: pH 2.0
[3] = method code SF-RC, from DOI: 10.1021/jf60204a016
[4] = method code SF-HPLC, from DOI: 10.1002/ps.2780440103; details: pH 2.0
[5] = not given; remark: listed apart in the source
[6] = method code SF-AS, from PMID: 578762; details: pH 7.4
[7] = method code SF-AS, from PMID: 582409; details: pH 7.4
[8] = not given; remark: listed apart in the source
[9] = method code SF-EIA, from DOI: 10.1016/j.carres.2004.12.038, PMID: 15797137
[10] = not given; remark: listed apart in the source
[11] = method code SF-AS, from DOI: 10.1016/0378-5173(88)90083-x; details: pH 7.3
[12] = not given; remark: listed apart in the source
[13] = not given; remark: listed apart in the source
[14] = method code SF-AS, from PMID: 7849133; details: pH 3.6
[15] = method code SF, from DOI: 10.1021/jm00019a019, PMID: 7562920; details: pH 10.0
[16] = from Afshan, A.; Jehangir, M.; Amin, W.; Mujahid, A. (2000). Study of various esters of ethylcysteine acid dimer as brain perfusion imaging agents and formulation into single vial kit for labelling with …; details: pH 7.5
[17] = pH 9.2
[18] = from Tomlinson, E.; Davis, S.; Parr, G.; James, M.; Farraj, N.; Kinkel, J.; Gaisser, D.; Wynne, H. (1986). The filter-probe extractor: a versatile tool for the rapid determination of solute oil/water …
[19] = method code SF-RC, from PMID: 1811623
[20] = method code SF-RC, from DOI: 10.1021/jm0607193, PMID: 17004725
[21] = method code SF-AS, from DOI: 10.1016/0223-5234(94)90063-9; details: pH 2.0
[22] = not given; remark: listed apart in the source
[23] = not given; remark: listed apart in the source
[24] = method code SF, from DOI: 10.1002/ps.2780290303; details: pH 5.0
[25] = method code SF, from DOI: 10.1021/jm950585l, PMID: 8632436
[26] = method code SF-HPLC, from DOI: 10.1016/j.ejmech.2008.06.022, PMID: 18687506; details: pH 7.4
[27] = method code SF-RC, from DOI: 10.1021/jm901850k, PMID: 20411954; details: pH 7.4
[28] = method code SF, from DOI: 10.1021/jm00114a024, PMID: 1920362
[29] = method code SF-AS, from DOI: 10.1002/jps.2600620542, PMID: 4705706
[30] = not given; remark: listed apart in the source
[31] = method code SF, from DOI: 10.1016/0223-5234(94)90060-4; details: pH 7.4
[32] = method code SF-AS, from DOI: 10.1111/j.2042-7158.1988.tb06996.x, PMID: 2907534; details: pH 7.0
[33] = method code SF-RC, from DOI: 10.1111/j.1399-3054.1990.tb08712.x
[34] = not given; remark: listed apart in the source
[35] = method code SF, from DOI: 10.1016/s0223-5234(98)80007-x
[36] = method code SF-RC, from DOI: 10.1016/j.bmc.2005.04.014, PMID: 15911305; details: pH 7.4
[37] = method code SF-AS, from DOI: 10.1016/j.ejmech.2007.07.011, PMID: 17869385; details: pH 7.4
[38] = method code SF-AS, from DOI: 10.5012/bkcs.2007.28.7.1183
[39] = method code SF-AS, from PMID: 11446164; details: pH 5.9
[40] = method code SF-AS, from DOI: 10.1016/0014-5793(79)80862-5, PMID: 478007
[41] = method code SF-HPLC, from DOI: 10.1002/ps.2780170106; details: pH 2.0
[42] = not given; remark: listed apart in the source
[43] = method code SF, from DOI: 10.1021/jm00151a007, PMID: 3941412; details: pH 9.0
[44] = method code SF-HPLC, from DOI: 10.1021/jm030477w, PMID: 15084119; details: pH 7.4
[45] = not given; remark: listed apart in the source
[46] = method code SF-F, from DOI: 10.1021/js950367f, PMID: 8901074
[47] = method code SF-HPLC, from DOI: 10.1016/0378-5173(95)00102-o
[48] = not given; remark: listed apart in the source
[49] = not given; remark: listed apart in the source

CCCCOc1ccc(CC(=O)NO)cc1
logD [1]: 2.08

CC(=O)C(=Cc1cc(O)c(O)c([N+](=O)[O-])c1)C(C)=O
logD [2]: 1.21

OC(Cn1cncn1)(Cn1cncn1)c1ccc(Cl)cc1Cl
logP: 1.1

CC(C)c1onc2nc(C(C)(C)C)[nH]c(=O)c12
logP [3]: 2.34

O=C(O)[C@H]1O[C@@H](Oc2ccc([N+](=O)[O-])cc2)[C@H](O)[C@@H](O)[C@@H]1O
logD [4]: -0.75

CCCCCOC(=O)c1ccc(O)cc1
logP [5]: 3.65

CCOC(=O)/C=C1\SC(N2CCCC2)C(=O)N1C (stereo not given)
logD [6]: 2

Nc1nc(N)c2nc(-c3ccc(O)cc3)c(N)nc2n1
logD [7]: 0.92

CCn1cc(C(=O)O)c(=O)c2cc3nc[nH]c3cc21
logP [8]: 0.41

OC[C@H]1O[C@H](O[C@H]2O[C@H](CO)[C@@H](O)[C@H](O)[C@H]2O)[C@H](O)[C@@H](O)[C@@H]1O
logP [9]: -3.76

CC1=C(C)C(O)N(c2ccccc2)C1=O (stereo not given)
logP [10]: 1.63

O=C(c1ccc(Cl)cc1)c1cc(F)ccc1O
logD [11]: 4.05

O=C(O)CCCn1c(=O)oc2ccccc2c1=O
logP [12]: 0.2

CCc1cccc2ccccc12
logP [13]: 4.38

O=C(O)c1cccnc1Nc1cccc(C(F)(F)F)c1
logD [14]: 2.95

CNc1ncnc2c1ncn2Cc1ccccc1F
logD [15]: 1.86

CCOC(=O)[C@H](CS)NCCN[C@@H](CS)C(=O)OCC
logD [16]: 1.4

CC(C)CNCNC(=O)c1ccccc1
logD [17]: 1.73

CNC(=O)[C@H](Cc1ccccc1)NC(C)=O
logP [18]: 0.5

Cc1c(C)c2ccc3occc3c2oc1=O
logP [19]: 2.9

COc1cc(C=CC(=O)C=C(C)O)cc(I)c1O
logP [20]: 1.35

Cn1c(CC(=O)O)cnc1C(=O)c1ccccc1
logD [21]: 0.22

Nc1nc(N)c2nc(-c3ccccc3)c(N)nc2n1
logP [22]: 1.24

CC1(C)NC(=O)N(c2ccc([N+](=O)[O-])c(C(F)(F)F)c2)C1=O
logP [23]: 2.31

COC(=O)c1sccc1S(=O)(=O)NC(=O)Nc1nc(OC)nc(OC)n1
logD [24]: 0.52

Cc1cc2c(ccc3c(C)cc(=O)[nH]c32)o1
logP [25]: 2.21

CC(=O)NCC(=O)NN=Nc1ccc(C#N)cc1
logD [26]: 1.1

CON=C1C=C(C#Cc2csc(CF)n2)CCC1
logD [27]: 1.6

CN(CCN)S(=O)(=O)c1ccc(C(C)(C)[N+](=O)[O-])c([N+](=O)[O-])c1
logP [28]: 0.62

COc1ccc(C(=O)c2ccncc2)cc1
logP [29]: 1.94

Cc1cccc2cccc(C)c12
logP [30]: 4.26

CC(=O)Nc1ccn(C2CSC(COC(C)=O)O2)c(=O)n1 (stereo not given)
logD [31]: 0.88

CCC1(c2ccccc2)C(=O)NC(=O)NC1=O
logD [32]: 1.32

O=C(O)Cc1cccc2ccccc12
logP [33]: 2.24

CN1C(=O)NC(=O)C(C)(C2=CCCCC2)C1=O (stereo not given)
logP [34]: 1.71

Cc1nc2n(c1C)CNc1ccccc1-2
logP [35]: 2.07

Nc1nc(OCc2cccc(I)c2)c2nc[nH]c2n1
logD [36]: 2.2

Cc1c(O)c(=O)ccn1CCCn1ccnc1
logD [37]: -0.46

Cc1cc(C)nc(NS(=O)(=O)c2ccc(N)cc2)n1
logP [38]: 0.21

O=C1N=C(N2CCOCC2)CN1c1ccc(Cl)cc1
logD [39]: 1.32

C#CC(C)N(C)C(=O)Nc1ccc(Cl)cc1 (stereo not given)
logP [40]: 3

O=C(O)COc1cccc2ccccc12
logD [41]: 2.6

O=[N+]([O-])c1nccn1CC(O)COc1ccccc1 (stereo not given)
logP [42]: 1.4

CNc1c(NCCSCc2nc[nH]c2C)c(=O)c1=O
logD [43]: -0.08

Nc1ccc(-c2cn3cc(I)ccc3n2)cc1
logD [44]: 3.58

COc1ccc(Cc2cnc(N)nc2N)cc1Cl
logP [45]: 1.65

COc1c2ccoc2cc2oc(=O)ccc12
logP [46]: 2

CCCCCCOC(=O)c1cccnc1
logP [47]: 3.51

CCC(O)(CCC(N)=O)c1ccccc1 (stereo not given)
logP [48]: 2.11

CCC(N)C(=O)Nc1c(C)cccc1C (stereo not given)
logP [49]: 0.84
